PubChem BioAssay AID1963969 (Molecular Pharmacology Branch, DTP, NCI, 2024)
pIC50: −log10 of the molar value. Where “and” joins values, the source holds several entries; their conditions need not be identical. Equal entries are not always repeated.

Tested on: 817829-284-R-J1-PDC multi-cell spheroid viability
Assay: Anticancer human tumor 817829-284-R-J1-PDC patient-derived colon adenocarcinoma cell line growth inhibition [PI3K]
Details: for viability, T/C: stronger effect = lower value
Summary of the method: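 Viability of mixed-cell spheroids was determined after exposure to pairwise combinations, one partner being inavolisib, alpelisib, duvelisib or copanlisib. Highest tested concentration matched clinical Cmax where known and 10 microM where not, descending in half-log steps.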
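Note: spheroids exposed to agents for seven days before readout.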
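Throughout, for viability, T/C: percent of vehicle DMSO control viability which is 100%.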

CC(C)n1nc(-c2ccc3oc(N)nc3c2)c2c(N)ncnc21 + CC(Nc1ncnc2nc[nH]c12)c1cc2cccc(Cl)c2c(=O)n1-c1ccccc1
pIC50 (curve of first compound, second compound 0.0316 µM): 7.71 | pIC50 (curve of first compound, second compound 0.1 µM): 7.47 | pIC50 (curve of first compound, second compound 0.316 µM): 7.80 | pIC50 (curve of first compound, second compound 1 µM): 7.71 | pIC50 (curve of first compound, second compound 3.16 µM): 8.03 | pIC50 (curve of first compound, second compound 10 µM): 7.96 | viability, T/C (second compound 0.0316 µM, first compound 0.000316 µM): 74.9% | viability, T/C (second compound 0.0316 µM, first compound 0.001 µM): 107% | viability, T/C (second compound 0.0316 µM, first compound 0.00316 µM): 57.3% | viability, T/C (second compound 0.0316 µM, first compound 0.01 µM): 62.7% | viability, T/C (second compound 0.0316 µM, first compound 0.0316 µM): 44.8% | viability, T/C (second compound 0.0316 µM, first compound 0.1 µM): 18.1% | viability, T/C (second compound 0.1 µM, first compound 0.000316 µM): 100% | viability, T/C (second compound 0.1 µM, first compound 0.001 µM): 121% | viability, T/C (second compound 0.1 µM, first compound 0.00316 µM): 64% | viability, T/C (second compound 0.1 µM, first compound 0.01 µM): 80% | viability, T/C (second compound 0.1 µM, first compound 0.0316 µM): 56.7% | viability, T/C (second compound 0.1 µM, first compound 0.1 µM): 18.7% | viability, T/C (second compound 0.316 µM, first compound 0.000316 µM): 135% | viability, T/C (second compound 0.316 µM, first compound 0.001 µM): 77.2% | viability, T/C (second compound 0.316 µM, first compound 0.00316 µM): 94.2% | viability, T/C (second compound 0.316 µM, first compound 0.01 µM): 59.9% | viability, T/C (second compound 0.316 µM, first compound 0.0316 µM): 31.3% | viability, T/C (second compound 0.316 µM, first compound 0.1 µM): 27.5% | viability, T/C (second compound 1 µM, first compound 0.000316 µM): 89.4% | viability, T/C (second compound 1 µM, first compound 0.001 µM): 124% | viability, T/C (second compound 1 µM, first compound 0.00316 µM): 74.4% | viability, T/C (second compound 1 µM, first compound 0.01 µM): 66.3% | viability, T/C (second compound 1 µM, first compound 0.0316 µM): 41.9% | viability, T/C (second compound 1 µM, first compound 0.1 µM): 18.9% | viability, T/C (second compound 3.16 µM, first compound 0.000316 µM): 106% | viability, T/C (second compound 3.16 µM, first compound 0.001 µM): 86.4% | viability, T/C (second compound 3.16 µM, first compound 0.00316 µM): 96% | viability, T/C (second compound 3.16 µM, first compound 0.01 µM): 47.4% | viability, T/C (second compound 3.16 µM, first compound 0.0316 µM): 44.2% | viability, T/C (second compound 3.16 µM, first compound 0.1 µM): 23.8% | viability, T/C (second compound 10 µM, first compound 0.000316 µM): 80% | viability, T/C (second compound 10 µM, first compound 0.001 µM): 68.5% | viability, T/C (second compound 10 µM, first compound 0.00316 µM): 106% | viability, T/C (second compound 10 µM, first compound 0.01 µM): 52.1% | viability, T/C (second compound 10 µM, first compound 0.0316 µM): 30.3% | viability, T/C (second compound 10 µM, first compound 0.1 µM): 17.8%

CCCS(=O)(=O)Nc1ccc(F)c(C(=O)c2c[nH]c3ncc(-c4ccc(Cl)cc4)cc23)c1F
viability, T/C (compound 0.0316 µM): 91.8% and 75.6% and 87.7% | viability, T/C (compound 0.1 µM): 75.9% and 81.4% and 57.4% | viability, T/C (compound 0.316 µM): 82.7% and 65.9% and 44.2% | viability, T/C (compound 1 µM): 90% and 62.3% and 54.9% | viability, T/C (compound 3.16 µM): 68% and 89.2% and 50.6% | viability, T/C (compound 10 µM): 7.12% and 5.31% and 3% | pIC50 (curve of compound): 5.35 and 5.32 and 5.85
